In brackets after ≈: the same amount, converted by molar mass. Where two headings read alike, the source gives them in different places.
Experiments:
[1] = test system: planktonic Pseudomonas aeruginosa; assay: MIC on planktonic bacteria (NCCLS dilution standard); format: cell-based
Method: The determination of the minimal inhibitory concentration (MIC) is performed according to the standard of NCCLS (NCCLS, Methods for dilution Antimicrobial Susceptibility Tests for bacteria that grow aerobically; approved standards, sixth edition, M7-A6, vol. 23 no. 2, January 2003.

[2] = test system: 12 day biofilm of Pseudomonas aeruginosa; assay: Bacterial count (CFU/ml) of 12-day biofilm after 24 hours with the products; format: cell-based; settings: tobramycin 4 μg/ml alone; clarithromycin 100, 200 and 500 μg/ml alone; all combinations
Description: Biofilms of Pseudomonas aeruginosa—strain PY O1 were formed according to the methods described by Ceri et al, the calgary biofilm device: new technology for rapid determination of antibiotic susceptibilities of bacterial biofilms, Journal of clinical microbiology, pp. 1771-1776, 1999 and Abdi-Ali et al, bactericidal activity of various antibiotics against biofilm-producing Pseudomonas aeruginosa, International Journal of Antimicrobial Agents 27, 196-200, 2006.
PY O1: is a cystic Fibrosis clinical mucoid strain of Pseudomonas aeruginosa received from the Erasme Hospital, Brussels.
After having shown that the number of Pseudomonas aeruginosa within the biofilms was stable after 12 days, the products listed in Table 1 were added to the media for the duration of 24 hours. Thereafter the biofilm was rinsed three times with a 0.01M phosphate buffer adjusted at pH 7.5 in order to remove all cells not bound to the biofilm. The microplate was then placed on ultrasonic bath at 35° C. for 5 minutes to allow the bacteria present in the biofilm to separate from such biofilm. A bacterial count was then performed (number of coloning forming unit CFU/ml). Each experience was done twice and the CFU counting was also repeated twice/experience.

[3] = In vitro lung deposition, Multistage Liquid Impinger (MLI); format: physicochemical; settings: for lung concentration obtained per capsule: composition of example 6, epithelial liquid in the lung estimated at about 100 ml
Description: The amount of macrolide agent inhaled shall be high enough to affect, in some way, the biofilm. It has to be noted that as the effect of macrolide derivatives on the biofilm is mediated through a non-antibacterial mechanism. […] Nevertheless, it is a another object of the present invention to provide a composition containing high concentrations (or amounts) of each of the aminoglycoside derivative and of the macrolide derivative i.e. at least more than 10%, preferably more than 15%, and more preferably more than 20% of the dry powder composition. It is indeed particularly interesting to achieve high lung doses of those therapeutic agents with the minimum amounts of inhalations because it makes the administration easier and more importantly increase the patient's compliance. It also decreases the nominal dose of each active ingredient and thus the adverse effects linked to these actives. In the present invention, the dry powder inhaler also provides a high Fine Particle Dose (FPD) and Fine Particle […] (FPF) when tested in vitro on a Multistage Liquid Impinger (MLI, Eur. Pharm, 5th Edition, chapter 2.9.18). The FPD and FPF are the parameters that predict in vivo lung deposition.
The in vitro lung deposition test was performed using equipment and conditions as described in the European Pharmacopoeia (5th edition, chapter 2.9.18—apparatus C). This equipment consists of a Multistage Liquid Impinger (MLI) and was operated with an air flow of 100 L/min during a period of time of 2.4 seconds to simulate inhalation capabilities of patients. The quantification of the deposition of each drug on each stage of the MLI was performed by HPLC equipped with a a Corona detector.

[4] = composition of example 6, 10 mg/capsule, MLI 100 L/min, Mean (n = 3)
[5] = composition of example 6, 10 mg/capsule, MLI 100 L/min, run MLI1
[6] = composition of example 6, 10 mg/capsule, MLI 100 L/min, run MLI2
[7] = composition of example 6, 10 mg/capsule, MLI 100 L/min, run MLI3

Question: What does the source list for `NC[C@H]1O[C@H](O[C@H]2[C@H](O)[C@@H](O[C@H]3O[C@H](CO)[C@@H](O)[C@H](N)[C@H]3O)[C@H](N)C[C@@H]2N)[C@H](N)C[C@@H]1O` [Tobramycin]?
Answer: MIC ([1]; read-out: MIC): 3.9 µg/mL (≈ 8.34 µM); Decrease of the number of CFU/ml of the 12-day biofilm versus the positive control [2]: neither tobramycin 4 μg/ml nor clarithromycin at 100, 200 and 500 μg/ml alone are able to decrease the number of CFU/ml; FPD [3, 4]: 4.26 mg; Filter deposition [3, 4]: 0.760 mg; FPD [3, 5]: 3.60 mg; FPD [3, 6]: 4.45 mg; FPD [3, 7]: 4.72 mg; lung concentration obtained per capsule [3]: 42.6 µg/mL

Question: With `CC[C@H]1OC(=O)[C@H](C)[C@@H](O[C@H]2C[C@@](C)(OC)[C@@H](O)[C@H](C)O2)[C@H](C)[C@@H](O[C@@H]2O[C@H](C)C[C@H](N(C)C)[C@H]2O)[C@](C)(OC)C[C@@H](C)C(=O)[C@H](C)[C@@H](O)[C@]1(C)O` [Clarithromycin] as the compound, how does the MIC [1] read?
Answer: not sensitive

Question: What about the “Decrease of the number of CFU/ml of the 12-day biofilm versus the positive control” value [2] of the same compound?
Answer: neither tobramycin 4 μg/ml nor clarithromycin at 100, 200 and 500 μg/ml alone are able to decrease the number of CFU/ml

Question: And the FPD [3, 4]?
Answer: 3.63 mg

Question: And the Filter deposition [3, 4]?
Answer: 0.550 mg

Question: And the FPD [3, 5]?
Answer: 3.14 mg

Question: What about the FPD [3, 6] of the same compound?
Answer: 3.76 mg

Question: And the FPD [3, 7]?
Answer: 3.98 mg

Question: What about the “Stage 2 deposition” value [3, 7] of the same compound?
Answer: 0.680 mg

Question: What about the “lung concentration obtained per capsule” value [3] of the same compound?
Answer: 36.3 µg/mL
